Laboratory results taken from article PMC8748916, “Microbial enzymes induce colitis by reactivating triclosan in the mouse gastrointestinal tract” (Nature Communications, 2022).
Several values for one entry are separate records, joined by “and”; a condition that tells them apart may be missing. Equal entries are not always repeated.

Key:
[1] = LC-MS/MS of TCS and its metabolites in human stool and urine after use of TCS-containing personal care products; assay type: in vivo; conditions: for TCS metabolites in human stool / TCS metabolites in human urine: Treatment TCS, individual subjects; for average molar concentration ratio: TCS-exposed subjects;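 for Profile in stool (%): molar share of summed TCS plus TCS-G plus TCS-sulfate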;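 for Profile in urine (%): molar share of summed TCS plus TCS-G plus TCS-sulfate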;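 for average molar concentration ratio: molar share of summed TCS plus TCS-G plus TCS-sulfate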
From the text: To broaden our understanding of TCS metabolic profiles in the gut, we next analyzed TCS metabolism in human subjects. We utilized urine and stool samples from a previous study in which the recruited human subjects were first subjected to a washout period (no usage of TCS-containing products), then were randomly assigned to two groups that used personal care products like toothpaste with or without TCS for up to four months (see the scheme of the experiment in Fig. 1c)[15]. Previous data had established that humans are primarily exposed to TCS via toothpaste that provides a direct oral route to the gastrointestinal tract[16],[17].

[2] = LC-MS/MS profiling of TCS metabolism in mice (TCS via diet for 4 weeks); conditions: for concentration of TCS, TCS-G, TCS-Sulfate: individual mice
[3] = system: enzymes extracted from human fecal samples; assay: In fimo assay (TCS-G turnover rate by human fecal extracts); assay type: biochemical; conditions: Fig. 3c, replicates 1-3
Description: Fecal extracts were prepared and proteomic analysis was performed exactly as previously described. In total, 10 g of frozen human fecal sample was thawed and added to 25 mL extraction buffer (25 mM HEPES, 25 mM NaCl pH 6.5 with Roche Complete protease inhibitor tablet) and 0.5 g autoclaved garnet beads. The mixture was vortexed until homogenous and centrifuged at low speed (300 × g for 5 min at 4 °C). The supernatant was decanted. In all, 25 mL buffer was added to the pellet and the vortex and centrifugation steps repeated. The supernatants from these steps were then combined and centrifuged at low speed for two more cycles. The resultant supernatant was sonicated twice using 1 s pulses for 1.5 min and the lysate was centrifuged at 17,000 × g for 20 min in a Beckman Coulter J2-HC centrifuge. The decanted lysate was then washed with several exchanges of extraction buffer to remove metabolites and small molecules. Total protein concentration was quantitated using a Bradford assay. The fecal lysate was diluted to 1 mg/mL concentration and snap-frozen in small aliquots.
Reaction mixtures contained 5 µL fecal extract (0.1 mg/mL final), 30 µL TCS-G (200 µM final), and 15 µL assay buffer (25 mM HEPES, 25 mM NaCl, pH 6.5). Reactions were quenched at five time points with 50 µL 25% trichloroacetic acid. Samples were centrifuged 20 min at 16,000 × g in a tabletop centrifuge, and the supernatant was analyzed via the same HPLC method described for the catalytic efficiency assay. Reaction rates were determined by fitting progress curves using linear regression and are expressed as initial turnover rates (µM/s). Controls contained fecal extract that had been heat-killed at 95 °C for 5 min. Reported rates are the average of three biological replicates ±SEM.

[4] = treatment time 0 months (after washout)

SMILES: O=S(=O)(O)Oc1cc(Cl)ccc1Oc1ccc(Cl)cc1Cl [TCS-sulfate, triclosan-sulfate]
- Profile in urine (%) ([1]; TCS-exposed human subjects, n=7 urine samples): 0.04%
- Profile in stool (%) ([1]; TCS-exposed human subjects, n=23 stool samples): 0.0365%
- TCS metabolites in human stool [1, 4]: 0.311 pmol/ g stool and < LOD
- TCS metabolites in human urine [1, 4]: 0.071 nM urine and < LOD (3×)
- TCS metabolites in human stool ([1]; treatment time 1 month): 1.344 pmol/ g stool and < LOD (3×) and 0.342 pmol/ g stool and 0.381 pmol/ g stool
- TCS metabolites in human urine ([1]; treatment time 1 month): 0.470 nM urine
- TCS metabolites in human stool ([1]; treatment time 2 months): < LOD (4×) and 0.999 pmol/ g stool
- TCS metabolites in human urine ([1]; treatment time 2 months): 0.522 nM urine
- TCS metabolites in human stool ([1]; treatment time 3 months): 0.987 pmol/ g stool and < LOD (5×)
- TCS metabolites in human urine ([1]; treatment time 3 months): 0.157 nM urine
- TCS metabolites in human stool ([1]; treatment time 4 months): 0.971 pmol/ g stool and < LOD (4×) and 0.236 pmol/ g stool
- TCS metabolites in human urine ([1]; treatment time 4 months): 0.257 nM urine and < LOD and 0.689 nM urine and 0.388 nM urine
- average molar concentration ratio ([1]; human stool): 0.0%
- average molar concentration ratio ([1]; human urine): 0.0%
- concentration of TCS, TCS-G, TCS-Sulfate ([2]; Bile, 80 ppm TCS via diet 4 weeks): 93.62 pmol/mg and 49.05 pmol/mg and 43.31 pmol/mg and 67.29 pmol/mg
- concentration of TCS, TCS-G, TCS-Sulfate ([2]; Cecum (digesta), 80 ppm TCS via diet 4 weeks): 0.12 pmol/mg and 0.13 pmol/mg and 0.09 pmol/mg and 0.35 pmol/mg and 0.29 pmol/mg and 0.53 pmol/mg and 0.56 pmol/mg and 0.38 pmol/mg and 0.61 pmol/mg and 0.54 pmol/mg
- concentration of TCS, TCS-G, TCS-Sulfate ([2]; Cecum digesta, 1 ppm TCS in diet 4 weeks): 0 pmol/mg
- concentration of TCS, TCS-G, TCS-Sulfate ([2]; Cecum digesta, 10 ppm TCS in diet 4 weeks): 0.02 pmol/mg and 0 pmol/mg and 0.01 pmol/mg
- concentration of TCS, TCS-G, TCS-Sulfate ([2]; Cecum digesta, 80 ppm TCS in diet 4 weeks): 0.03 pmol/mg and 0.05 pmol/mg and 0.08 pmol/mg and 0.06 pmol/mg and 0.13 pmol/mg
- concentration of TCS, TCS-G, TCS-Sulfate ([2]; Colon (digesta), 80 ppm TCS via diet 4 weeks): 1.16 pmol/mg and 1.00 pmol/mg and 1.32 pmol/mg and 1.31 pmol/mg and 2.15 pmol/mg and 0.67 pmol/mg and 0.75 pmol/mg and 2.57 pmol/mg and 1.48 pmol/mg and 2.39 pmol/mg
- concentration of TCS, TCS-G, TCS-Sulfate ([2]; Colon digesta, 1 ppm TCS in diet 4 weeks): 0 pmol/mg
- concentration of TCS, TCS-G, TCS-Sulfate ([2]; Colon digesta, 10 ppm TCS in diet 4 weeks): 0.2 pmol/mg and 0 pmol/mg and 0.03 pmol/mg and 0.01 pmol/mg and 0.05 pmol/mg and 0.02 pmol/mg
- concentration of TCS, TCS-G, TCS-Sulfate ([2]; Colon digesta, 80 ppm TCS in diet 4 weeks): 0.3 pmol/mg and 0.21 pmol/mg and 0.1 pmol/mg and 0.13 pmol/mg and 0.22 pmol/mg and 0.09 pmol/mg and 0.81 pmol/mg and 0.37 pmol/mg
- concentration of TCS, TCS-G, TCS-Sulfate ([2]; Feces, 1 ppm TCS in diet 4 weeks): 0.05 pmol/mg
- concentration of TCS, TCS-G, TCS-Sulfate ([2]; Feces, 10 ppm TCS in diet 4 weeks): 0.1 pmol/mg and 0.16 pmol/mg
- concentration of TCS, TCS-G, TCS-Sulfate ([2]; Feces, 80 ppm TCS in diet 4 weeks): 3.27 pmol/mg and 1.08 pmol/mg
- Level in Cecum ([2]; Fig. S3b, Cecum, individual mice No. 1-10 per row): 0.53 and 0.56 and 0.38 and 0.61 and 0.54 and 0.12 and 0.13 and 0.09 and 0.35 and 0.29
- Level in Colon ([2]; Fig. S3b, Colon, individual mice No. 1-10 per row): 0.78 and 1.13 and 3.01 and 1.95 and 2.87 and 1.28 and 1 and 1.68 and 1.44 and 2.3
- Level in SI 1st section ([2]; Fig. S3b, SI 1st section, individual mice No. 1-10 per row): 7.35 and 7.33 and 7.48 and 7.82 and 9.31 and 9.27 and 9.71 and 4.38 and 7.68 and 8.04
- Level in SI 2nd section ([2]; Fig. S3b, SI 2nd section, individual mice No. 1-10 per row): 6.24 and 6.6 and 5.34 and 6.55 and 6.34 and 6.37 and 6.86 and 2.98 and 4.48 and 5.78
- Level in SI 3rd section ([2]; Fig. S3b, SI 3rd section, individual mice No. 1-10 per row): 5.62 and 5.7 and 3.67 and 5.46 and 7.7 and 5.86 and 4.93 and 2.15 and 4.34 and 5.06
- Level in SI 4th section ([2]; Fig. S3b, SI 4th section, individual mice No. 1-10 per row): 7.25 and 6.61 and 6.48 and 10.63 and 8.75 and 6.52 and 6.94 and 2.9 and 7.06
- concentration of TCS, TCS-G, TCS-Sulfate ([2]; Heart, 80 ppm TCS via diet 4 weeks): 10.90 pmol/mg and 8.11 pmol/mg and 9.20 pmol/mg and 10.24 pmol/mg
- concentration of TCS, TCS-G, TCS-Sulfate ([2]; Liver, 80 ppm TCS via diet 4 weeks): 37.26 pmol/mg and 31.81 pmol/mg and 21.91 pmol/mg and 24.89 pmol/mg and 30.95 pmol/mg and 12.68 pmol/mg and 35.36 pmol/mg and 32.58 pmol/mg and 32.38 pmol/mg and 20.28 pmol/mg
- concentration of TCS, TCS-G, TCS-Sulfate ([2]; SI 1st section (digesta), 80 ppm TCS via diet 4 weeks): 7.33 pmol/mg and 7.48 pmol/mg and 7.82 pmol/mg and 9.31 pmol/mg
- concentration of TCS, TCS-G, TCS-Sulfate ([2]; SI 2nd section (digesta), 80 ppm TCS via diet 4 weeks): 6.37 pmol/mg and 6.86 pmol/mg and 2.98 pmol/mg and 4.48 pmol/mg and 5.78 pmol/mg and 6.24 pmol/mg and 6.60 pmol/mg and 5.34 pmol/mg and 6.55 pmol/mg and 6.34 pmol/mg
- concentration of TCS, TCS-G, TCS-Sulfate ([2]; SI 3rd section (digesta), 80 ppm TCS via diet 4 weeks): 5.86 pmol/mg and 4.93 pmol/mg and 2.15 pmol/mg and 4.34 pmol/mg and 5.06 pmol/mg and 5.62 pmol/mg and 5.70 pmol/mg and 3.67 pmol/mg and 5.46 pmol/mg and 7.70 pmol/mg
- concentration of TCS, TCS-G, TCS-Sulfate ([2]; SI 4th section (digesta), 80 ppm TCS via diet 4 weeks): 6.52 pmol/mg and 6.94 pmol/mg and 2.90 pmol/mg and 6.61 pmol/mg and 7.06 pmol/mg and 7.25 pmol/mg and 6.48 pmol/mg and 10.63 pmol/mg and 8.75 pmol/mg
- share of TCS metabolites found ([2]; digesta of the 4th section of the mouse small intestine, 80 ppm TCS via diet 4 weeks): 7.7%
- share of TCS metabolites found ([2]; fecal content, 80 ppm TCS via diet 4 weeks): 0.2%

SMILES: O=C(O)[C@H]1OC(Oc2cc(Cl)ccc2Oc2ccc(Cl)cc2Cl)[C@H](O)[C@@H](O)[C@@H]1O (stereo partly shown) [TCSG]
- TCSG turnover rate ([3]; human fecal extract sample F2): 0.0489 µM/s and 0.0506 µM/s and 0.0488 µM/s
- TCSG turnover rate ([3]; human fecal extract sample F3): 0.0556 µM/s and 0.0559 µM/s and 0.0553 µM/s
- TCSG turnover rate ([3]; human fecal extract sample F4): 0.036 µM/s and 0.0272 µM/s and 0.0271 µM/s
- TCSG turnover rate ([3]; human fecal extract sample M1): 0.063 µM/s and 0.0659 µM/s and 0.0613 µM/s
- TCSG turnover rate ([3]; human fecal extract sample M2): 0.0168 µM/s and 0.0179 µM/s and 0.0157 µM/s
- TCSG turnover rate ([3]; human fecal extract sample M3): 0.0438 µM/s and 0.0439 µM/s and 0.0436 µM/s
